Where only a bound is given, the exact number is not on record here.

For the first test, the system named is NLRP3 inflammasome. Nature of the test: IL-1β secretion assay. Particulars: Homo sapiens, THP-1, 3 h, PMA-differentiated THP-1 cells, 15 μM nigericin, HTRF. It counts as cell-based. On the procedure:
10 μL supernatant was removed, and IL-1p levels were monitored using an HTRF assay (CisBio, #62IL1PEC) according to manufacturers' instructions. Viability and pyroptosis was monitored with the addition of PrestoBlue cell viability reagent (Life Technologies, #A13261) directly to the cell culture plate.
IC50 values were calculated from the plot of percentage of inhibition versus the inhibitor concentration by a logistics fit according to: y=A2+(A1−A2)/(1+(x/IC50)^p) where y is the %-inhibition at the inhibitor concentration, x. A1 is the lowest inhibition value, i.e. 0%, and A2 the maximum inhibition value, i.e. 100%. The exponent, p, is the Hill coefficient. The curve fitting was conducted with an internally developed software suite.
NLRP3-dependent IL-1β secretion was stimulated in PMA-differentiated THP-1 cells by the addition of nigericin, and cytokines were measured in the […] after 3 hours. As discussed above, activation of the NLRP3 inflammasome requires both an NF-kB-dependent priming step and the addition of a NLRP3 activator.
(In general: Time-resolved FRET reads energy transfer from a long-lived donor to a nearby acceptor.)
On to `CC(C)c1nn(CC(=O)Nc2ccncn2)c(=O)c2cc3sc(Cl)cc3n12` [Ex 1, 2-(2-Chloro-5-isopropyl-8-oxothieno[2′,3′:4,5]pyrrolo[1,2-d][1,2,4]triazin-7(8H)-yl)-N-(pyrimidin-4-yl)acetamide], for which half-maximal inhibition (IC50) required 20.2 nM.

On to `CC(O)c1nn(CC(=O)Nc2ccncn2)c(=O)c2cc3sc(Cl)cc3n12` (stereo not shown) [Ex 3, 2-(2-Chloro-5-(1-hydroxyethyl)-8-oxothieno[2′,3′:4,5]pyrrolo[1,2-d][1,2,4]triazin-7(8H)-yl)-N-(pyrimidin-4-yl)acetamide], for which the IC50 (as a rule, the concentration needed to halve the response being measured) amounted to 228 nM. Against the preceding compound, the IC50 is about 11-fold higher.

Regarding `CC(C)c1nn(CC(=O)N[C@H]2CCN(C)C2)c(=O)c2cc3sc(Cl)cc3n12` [Ex 105, (S)-2-(2-Chloro-5-isopropyl-8-oxothieno[2′,3′:4,5]pyrrolo[1,2-d][1,2,4]triazin-7(8H)-yl)-N-(1-methylpyrrolidin-3-yl)acetamide], the IC50 worked out at 838 nM.

`CC(C)(O)c1nn(CC(=O)N[C@@H]2CCNC2)c(=O)c2cc3sc(Cl)cc3n12` [Ex 106, (R)-2-(2-Chloro-5-(2-hydroxypropan-2-yl)-8-oxothieno[2′,3′:4,5]pyrrolo[1,2-d][1,2,4]triazin-7(8H)-yl)-N-(pyrrolidin-3-yl)acetamide] displayed an IC50 of 2180 nM.

In turn, `CC(C)(O)c1nn(CC(=O)N[C@H]2CCNC2)c(=O)c2cc3sc(Cl)cc3n12` [Ex 107, (S)-2-(2-Chloro-5-(2-hydroxypropan-2-yl)-8-oxothieno[2′,3′:4,5]pyrrolo[1,2-d][1,2,4]triazin-7(8H)-yl)-N-(pyrrolidin-3-yl)acetamide] registered an IC50 of 4400 nM.

In turn, `CC(C)c1nn(CC(=O)N[C@H]2C[C@H](O)C2)c(=O)c2cc3sc(Cl)cc3n12` [Ex 108, 2-(2-Chloro-5-isopropyl-8-oxothieno[2′,3′:4,5]pyrrolo[1,2-d][1,2,4]triazin-7(8H)-yl)-N-((1r,3r)-3-hydroxycyclobutyl)acetamide] yielded a concentration for half-maximal inhibition (IC50) of 101 nM.

`CC(C)c1nn(CC(=O)N[C@H]2C[C@@H](O)C2)c(=O)c2cc3sc(Cl)cc3n12` [Ex 109, 2-(2-Chloro-5-isopropyl-8-oxothieno[2′,3′:4,5]pyrrolo[1,2-d][1,2,4]triazin-7(8H)-yl)-N-((1s,3s)-3-hydroxycyclobutyl)acetamide] gave an IC50 of 221 nM.

For the compound `CC(C)c1nn(CC(=O)NCCC2(O)CC2)c(=O)c2cc3sc(Cl)cc3n12` [Ex 110, 2-(2-Chloro-5-isopropyl-8-oxothieno[2′,3′:4,5]pyrrolo[1,2-d][1,2,4]triazin-7(8H)-yl)-N-(2-(1-hydroxycyclopropyl)ethyl)acetamide], the IC50 amounted to 115 nM. This IC50 lies about 1.9-fold lower than the previous one.

`CC(C)c1nn(CC(=O)Nc2cc(C(F)F)ncn2)c(=O)c2cc3sc(Cl)cc3n12` [Ex 112, 2-(2-Chloro-5-isopropyl-8-oxothieno[2′,3′:4,5]pyrrolo[1,2-d][1,2,4]triazin-7(8H)-yl)-N-(6-(difluoromethyl)pyrimidin-4-yl)acetamide] showed an IC50 of 253 nM. This IC50 lies about 2.2-fold higher than the previous one.

For `Cc1nc2c(cc3c(=O)n(CC(=O)N[C@H]4CC[C@H](C(=O)O)CC4)nc(C(C)C)n32)s1` [Ex 118, (1r,4r)-4-(2-(5-Isopropyl-2-methyl-8-oxothiazolo[5′,4′:4,5]pyrrolo[1,2-d][1,2,4]triazin-7(8H)-yl)acetamido)cyclohexane-1-carboxylic acid], inhibition was half-maximal at 78.8 nM (IC50).

In turn, `CC(C)c1nn(CC(=O)N[C@H]2CC[C@H](C(=O)O)CC2)c(=O)c2cc3scnc3n12` [Ex 119, (1r,4r)-4-(2-(5-Isopropyl-8-oxothiazolo[5′,4′:4,5]pyrrolo[1,2-d][1,2,4]triazin-7(8H)-yl)acetamido)cyclohexane-1-carboxylic acid] registered an IC50 of 40.5 nM.

Compound `CC(C)c1nn(CC(=O)N[C@H]2CC[C@H](C(=O)O)CC2)c(=O)c2cc3sc(F)cc3n12` [Ex 120, (1r,4r)-4-(2-(2-Fluoro-5-isopropyl-8-oxothieno[2′,3′:4,5]pyrrolo[1,2-d][1,2,4]triazin-7(8H)-yl)acetamido)cyclohexane-1-carboxylic acid] showed an IC50 of 17.2 nM. This IC50 is about 2.4-fold lower than that of the compound before.

The compound `O=C(Cn1nc(C2CC2)n2c(cc3sc(Cl)cc32)c1=O)N[C@H]1CC[C@H](C(=O)O)CC1` [Ex 121, (1r,4r)-4-(2-(2-Chloro-5-cyclopropyl-8-oxothieno[2′,3′:4,5]pyrrolo[1,2-d][1,2,4]triazin-7(8H)-yl)acetamido)cyclohexane-1-carboxylic acid] returned an IC50 of 44.1 nM.

With `CC(C)(O)c1nn(CC(=O)N[C@H]2CC[C@H](C(=O)O)CC2)c(=O)c2cc3sc(Cl)cc3n12` [Ex 122, (1r,4r)-4-(2-(2-Chloro-5-(2-hydroxypropan-2-yl)-8-oxothieno[2′,3′:4,5]pyrrolo[1,2-d][1,2,4]triazin-7(8H)-yl)acetamido)cyclohexane-1-carboxylic acid], it took 267 nM to reach half-maximal inhibition (IC50).

`CC(C)c1nn(CC(=O)NC23CC(C(=O)O)(C2)C3)c(=O)c2cc3sc(Cl)cc3n12` [Ex 123, 3-(2-(2-Chloro-5-isopropyl-8-oxothieno[2′,3′:4,5]pyrrolo[1,2-d][1,2,4]triazin-7(8H)-yl)acetamido)bicyclo[1.1.1]pentane-1-carboxylic acid] displayed an IC50 of 2080 nM.

The compound `CC(C)(O)c1nn(CC(=O)N[C@@H]2CCCN(C3CC3)C2)c(=O)c2cc3sc(Cl)cc3n12` [Ex 126, (R)-2-(2-Chloro-5-(2-hydroxypropan-2-yl)-8-oxothieno[2′,3′:4,5]pyrrolo[1,2-d][1,2,4]triazin-7(8H)-yl)-N-(1-cyclopropylpiperidin-3-yl)acetamide] had an IC50 of 0.6 nM.

Take `CCN1CCC[C@@H](NC(=O)Cn2nc(C(C)(C)O)n3c(cc4sc(Cl)cc43)c2=O)C1` [Ex 132, (R)-2-(2-Chloro-5-(2-hydroxypropan-2-yl)-8-oxothieno[2′,3′:4,5]pyrrolo[1,2-d][1,2,4]triazin-7(8H)-yl)-N-(1-ethylpiperidin-3-yl)acetamide]: the IC50 was 0.8 nM.

Another test has as its system NF-kB-dependent TNF-α secretion. Put plainly: TNF-α secretion assay (counterscreen). Particulars: Homo sapiens; THP-1 cells, Pam3CSK4-stimulated, 3 hours, HTRF. In kind it is cell-based. As to the method:
Monocytic THP-1 cells were maintained according to providers' instructions in RPMI media as described above. Undifferentiated cells were plated at 50,000 cells per well in a 384-well flat-bottom cell culture plates (Greiner, #781986), and allowed to rest overnight. Experimental compounds were prepared and added as described above. TNF-α secretion was triggered by the addition of either 1 μg/mL LPS (Sigma, #L4391) or 100 ng/mL Pam3CSK4 (Invivogen, #tlrl-pms) depending on the experiment, and cells were incubated for 3 hours. 10 μL supernatant was removed, and TNF-α levels were monitored using an HTRF assay (CisBio, #62TNFPEC) according to manufacturers' instructions. Viability was monitored as described above.
IC50 values were calculated from the plot of percentage of inhibition versus the inhibitor concentration by a logistics fit according to: y=A2+(A1−A2)/(1+(x/IC50)^p) where y is the %-inhibition at the inhibitor concentration, x. A1 is the lowest inhibition value, i.e. 0%, and A2 the maximum inhibition value, i.e. 100%. The exponent, p, is the Hill coefficient. The curve fitting was conducted with an internally developed software suite. […]
(In general: Counterscreens check selectivity or assay interference.)
For the compound `CC(C)c1nn(CC(=O)Nc2ccncn2)c(=O)c2cc3sc(Cl)cc3n12` [Ex 1, 2-(2-Chloro-5-isopropyl-8-oxothieno[2′,3′:4,5]pyrrolo[1,2-d][1,2,4]triazin-7(8H)-yl)-N-(pyrimidin-4-yl)acetamide], the IC50 was over 100000 nM.

For `CC(C)c1nn(CC(=O)Nc2cccnc2)c(=O)c2cc3sc(Cl)cc3n12` [Ex 2, 2-(2-Chloro-5-isopropyl-8-oxothieno[2′,3′:4,5]pyrrolo[1,2-d][1,2,4]triazin-7(8H)-yl)-N-(pyridin-3-yl)acetamide], the IC50 is over 100000 nM.

Compound `CC(O)c1nn(CC(=O)Nc2ccncn2)c(=O)c2cc3sc(Cl)cc3n12` (stereo not shown) [Ex 3, 2-(2-Chloro-5-(1-hydroxyethyl)-8-oxothieno[2′,3′:4,5]pyrrolo[1,2-d][1,2,4]triazin-7(8H)-yl)-N-(pyrimidin-4-yl)acetamide] returned an IC50 of over 100000 nM.

In turn, `CC(C)c1nn(CC(=O)Nc2cccnc2)c(=O)c2cc3sc(F)cc3n12` [Ex 5, 2-(2-Fluoro-5-isopropyl-8-oxothieno[2,3′:4,5]pyrrolo[1,2-d][1,2,4]triazin-7(8H)-yl)-N-(pyridin-3-yl)acetamide] displayed an IC50 of over 100000 nM.

In turn, `CC(C)c1nn(CC(=O)N[C@@H]2CCCNC2)c(=O)c2cc3sc(Cl)cc3n12` [Ex 10, (R)-2-(2-Chloro-5-isopropyl-8-oxothieno[2′,3′:4,5]pyrrolo[1,2-d][1,2,4]triazin-7(8H)-yl)-N-(piperidin-3-yl)acetamide] yielded an IC50 of over 100000 nM.

The compound `CC(C)c1nn(CC(=O)N[C@@H]2CCCN(C)C2)c(=O)c2cc3sc(Cl)cc3n12` [Ex 17, (R)-2-(2-Chloro-5-isopropyl-8-oxothieno[2′,3′:4,5]pyrrolo[1,2-d][1,2,4]triazin-7(8H)-yl)-N-(1-methylpiperidin-3-yl)acetamide] returned an IC50 of over 100000 nM.

Regarding `CC(C)c1nn(CC(=O)N[C@H]2CCCN(C)C2)c(=O)c2cc3sc(Cl)cc3n12` [Ex 18, (S)-2-(2-Chloro-5-isopropyl-8-oxothieno[2′,3′:4,5]pyrrolo[1,2-d][1,2,4]triazin-7(8H)-yl)-N-(1-methylpiperidin-3-yl)acetamide], the IC50 was over 100000 nM.

Compound `CC(C)c1nn(CC(=O)N[C@@H]2CCCN(C)C2)c(=O)c2cc3scnc3n12` [Ex 48, (R)-2-(5-Isopropyl-8-oxothiazolo[5′,4′:4,5]pyrrolo[1,2-d][1,2,4]triazin-7(8H)-yl)-N-(1-methylpiperidin-3-yl)acetamide] displayed an IC50 of over 100000 nM.

On to `CN1CCC[C@@H](NC(=O)Cn2nc(C(C)(C)O)n3c(cc4sc(Cl)cc43)c2=O)C1` [Ex 60, (R)-2-(2-Chloro-5-(2-hydroxypropan-2-yl)-8-oxothieno[2′,3′:4,5]pyrrolo[1,2-d][1,2,4]triazin-7(8H)-yl)-N-(1-methylpiperidin-3-yl)acetamide], for which the IC50 was over 100000 nM.

In turn, `CC(C)c1nn(CC(=O)NC2CCOCC2)c(=O)c2cc3sc(Cl)cc3n12` [Ex 75, 2-(2-Chloro-5-isopropyl-8-oxothieno[2′,3′:4,5]pyrrolo[1,2-d][1,2,4]triazin-7(8H)-yl)-N-(tetrahydro-2H-pyran-4-yl)acetamide] returned an IC50 of over 100000 nM.

In turn, `CC(C)c1nn(CC(=O)N[C@@H]2CCCN(C3CCC3)C2)c(=O)c2cc3sc(Cl)cc3n12` [Ex 125, (R)-2-(2-Chloro-5-isopropyl-8-oxothieno[2′,3′:4,5]pyrrolo[1,2-d][1,2,4]triazin-7(8H)-yl)-N-(1-cyclobutylpiperidin-3-yl)acetamide] came in with an IC50 of over 33000 nM.

The record behind these values is patent US12168012B2, “NLRP3 inflammasome inhibitors” (Novartis AG, priority 2018, dated 2024).
